This is an account of results in US11524966B1 (Valo Early Discovery, Inc., priority 2017, dated 2022).

Usually IC50 stands for the concentration that inhibits the measured activity by half.

The target of this experiment is T1, USP28 (His-tagged USP28-FL-mammalian) (Homo sapiens, UniProt Q96RU2).
T1 construct: Expression of USP28 (1-1077)-TEV-6*His (pTT5 vector); made in house; host or cells: Expi293f cells (pTT5 vector)
T1 sequence (Q96RU2 1-1077): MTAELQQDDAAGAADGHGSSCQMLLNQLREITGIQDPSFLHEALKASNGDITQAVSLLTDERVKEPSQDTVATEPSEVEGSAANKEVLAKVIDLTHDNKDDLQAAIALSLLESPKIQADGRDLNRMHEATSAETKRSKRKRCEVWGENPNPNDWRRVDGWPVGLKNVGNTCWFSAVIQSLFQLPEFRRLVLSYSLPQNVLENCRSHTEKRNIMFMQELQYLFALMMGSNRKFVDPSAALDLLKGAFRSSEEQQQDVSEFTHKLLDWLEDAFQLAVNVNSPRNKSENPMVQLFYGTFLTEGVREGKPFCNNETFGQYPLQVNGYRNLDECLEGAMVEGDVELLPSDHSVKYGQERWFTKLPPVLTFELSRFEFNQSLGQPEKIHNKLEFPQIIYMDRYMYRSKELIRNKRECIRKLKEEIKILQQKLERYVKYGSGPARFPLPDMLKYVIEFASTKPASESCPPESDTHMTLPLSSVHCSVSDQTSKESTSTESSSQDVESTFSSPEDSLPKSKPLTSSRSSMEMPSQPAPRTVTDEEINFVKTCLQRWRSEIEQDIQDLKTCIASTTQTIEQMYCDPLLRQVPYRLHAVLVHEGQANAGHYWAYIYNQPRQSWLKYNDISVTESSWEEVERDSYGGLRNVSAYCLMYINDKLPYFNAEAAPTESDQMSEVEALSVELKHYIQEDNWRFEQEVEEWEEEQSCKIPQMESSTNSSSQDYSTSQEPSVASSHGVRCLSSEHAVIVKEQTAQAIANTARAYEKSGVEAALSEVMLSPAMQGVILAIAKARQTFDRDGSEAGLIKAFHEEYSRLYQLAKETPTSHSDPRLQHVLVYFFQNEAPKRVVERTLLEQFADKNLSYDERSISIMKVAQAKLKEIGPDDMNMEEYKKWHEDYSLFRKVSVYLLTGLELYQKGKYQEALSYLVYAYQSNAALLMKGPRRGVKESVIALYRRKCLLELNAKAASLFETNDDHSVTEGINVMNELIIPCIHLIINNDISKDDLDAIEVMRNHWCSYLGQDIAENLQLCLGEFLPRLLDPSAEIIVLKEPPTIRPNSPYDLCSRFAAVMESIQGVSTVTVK
Put plainly: Ubiquitin-Rhodamine 110 Assay for USP28 Activity, Example A-1(a). The experiment is classed as biochemical. As to conditions: Ubiquitin-Rhodamine 110 assay, Example A-1(a); read-out: USP28 A-1(a) IC50 range. The method, boiled down:
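Full-length His-tagged human USP28 (1-1077, Expi293f-expressed), […], with 25 nM Ub-Rh110 (<<Km) in pH 8.0 Tris buffer with BME, BGG, Triton X-100. 10-point dilutions (25 μM-1.3 nM), 45 min at room temperature, citric acid stop, fluorescence 485/535 nm; IC50 by 4-parameter fit.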
Take `C[C@H](Nc1ccc(C(=O)N[C@H]2COc3cc(N4CCNCC4)ccc3C2)cn1)c1ccccc1` [Example 53, 6-(((S)-1-phenylethyl)amino)-N-((R)-7-(piperazin-1-yl)chroman-3-yl)nicotinamide]: the IC50 was greater than 2000 nM.
For the molecule `Cc1cnc2c(N)c(C(=O)N[C@H]3COc4cc(N5CC6CCC(C5)N6)c(F)cc4C3)sc2n1` (single isomer, unassigned) [Example 40], the concentration for half-maximal inhibition (IC50) lay within 1 to 50 nM.
With `Cc1ccc2c(N)c(C(=O)N[C@H]3COc4c(F)c(N5CCNCC5)cc(F)c4C3)oc2n1` [Example 68, (R)-3-amino-N-(5,8-difluoro-7-(piperazin-1-yl)chroman-3-yl)-6-methylfuro[2,3-b]pyridine-2-carboxamide], the half-inhibitory concentration (IC50) was in the range of 200 to 2000 nM.
The value for `Cc1cnc2c(N)c(C(=O)N[C@H]3CCc4nc(N5CC6CCC(C5)N6)ccc4C3)sc2n1` [Example 23-13, 7-amino-N-{(6S)-2-{3,8-diazabicyclo[3.2.1]octan-3-yl}-5,6,7,8-tetrahydroquinolin-6-yl]-3-methylthieno[2,3-b]pyrazine-6-carboxamide] was 1 to 50 nM; that for `Cc1ccc2c(N)c(C(=O)N[C@H]3COc4cc([C@H]5CCNCC5(F)F)ccc4C3)sc2n1` [Example 69, 3-amino-N-((R)-7-((R)-3,3-difluoropiperidin-4-yl)chroman-3-yl)-6-methylthieno[2,3-b]pyridine-2-carboxamide] was 1 to 50 nM.
Under `Cc1ccc2c(N)c(C(=O)N[C@H]3CCc4nc(N5CC6CCC(C5)N6)cc(F)c4C3)sc2n1` [Example 23-18, N-((6S)-2-(3,8-diazabicyclo[3.2.1]octan-3-yl)-4-fluoro-5,6,7,8-tetrahydroquinolin-6-yl)-3-amino-6-methylthieno[2,3-b]pyridine-2-carboxamide] stands 1 to 50 nM; under `Cc1ccc2c(N)c(C(=O)N[C@H]3CCc4nc(N5CC6CC(C5)N6)ccc4C3)sc2n1` [Example 23-10, 3-amino-N-[(6S)-2-{3,6-diazabicyclo[3.1.1]heptan-3-yl}-5,6,7,8-tetrahydroquinolin-6-yl]-6-methylthieno[2,3-b]pyridine-2-carboxamide], 200 to 2000 nM; under `COC[C@@H]1CN(c2ccc3c(n2)CC[C@H](NC(=O)c2sc4nc(C)ccc4c2N)C3)C[C@@H]1N` (single isomer, unassigned) [Example 24-1], 50 to 200 nM.
For `Cc1cnc2c(N)c(C(=O)N[C@@H]3COc4cc(N5CC6CCC(C5)N6)c(F)cc4C3)sc2n1` (single isomer, unassigned) [Example 41], the IC50 was 200 to 2000 nM.
The value for `Cc1ccc2c(N)c(C(=O)N[C@H]3Cc4ccc(N5CCNCC5)nc4C4(CC4)C3)sc2n1` (single isomer, unassigned) [Example 31-4, 3-amino-6-methyl-N-[(6′R)-2′-(piperazin-1-yl)-6′,7′-dihydro-5′H-spiro[cyclopropane-1,8′-quinoline]-6′-yl]thieno[2,3-b]pyridine-2-carboxamide] was 1 to 50 nM; that for `C[C@H]1CCc2cc(C(=O)N[C@H]3COc4cc(N5CC6CCC(C5)N6)ccc4C3)cnc2N1` [Example 73, (7S)-N-((3R)-7-(3,8-diazabicyclo[3.2.1]octan-3-yl)chroman-3-yl)-7-methyl-5,6,7,8-tetrahydro-1,8-naphthyridine-3-carboxamide] was greater than 2000 nM; that for `Cc1cnc2c(N)c(C(=O)N[C@H]3COc4c(C#N)c(N5CC6CC(C5)N6)cc(F)c4C3)sc2n1` [Example 77, N-((3R)-7-(3,6-diazabicyclo[3.1.1]heptan-3-yl)-8-cyano-5-fluorochroman-3-yl)-7-amino-3-methylthieno[2,3-b]pyrazine-6-carboxamide] was 50 to 200 nM.
On to `O=C(N[C@H]1COc2cc(N3CCNCC3)ccc2C1)c1cnc2c(c1)CC[C@@H]2O` [Example 58, (S)-7-hydroxy-N-((R )-7-(piperazin-1-yl)chroman-3-yl)-6,7-dihydro-5H-cyclopenta[b]pyridine-3-carboxamide], for which the IC50 was in the range of 200 to 2000 nM.
Under `O=C(N[C@H]1COc2cc(N3CCNCC3)ccc2C1)c1cnc2c(c1)CC[C@H]2O` [Example 57, (R)-7-hydroxy-N-((R)-7-(piperazin-1-yl)chroman-3-yl)-6,7-dihydro-5H-cyclopenta[b]pyridine-3-carboxamide] stands greater than 2000 nM; under `Cc1ccc2c(N)c(C(=O)N[C@H]3COc4cc([C@H]5CCNC[C@@H]5O)ccc4C3)sc2n1` [Example 64, 3-amino-N-((R)-7-((3R,4R)-3-hydroxypiperidin-4-yl)chroman-3-yl)-6-methylthieno[2,3-b]pyridine-2-carboxamide], 1 to 50 nM.
Under `Cc1cnc2c(N)c(C(=O)N[C@H]3COc4c(C#N)c(N5CCNCC5)cc(F)c4C3)sc2n1` [Example 60, (R)-7-amino-N-(8-cyano-5-fluoro-7-(piperazin-1-yl)chroman-3-yl)-3-methylthieno[2,3-b]pyrazine-6-carboxamide] stands 50 to 200 nM.
